“Also recorded” adds a separate entry of the source.
Experiment: Stability of octreotide pamoate in sustained release formulations
Type: physicochemical
Conditions: in sustained release formulations (microparticles); hydrate

## C[C@@H](O)[C@@H]1NC(=O)[C@H](CCCCN)NC(=O)[C@@H](Cc2c[nH]c3ccccc23)NC(=O)[C@H](Cc2ccccc2)NC(=O)[C@@H](NC(=O)[C@H](N)Cc2ccccc2)CSSC[C@@H](C(=O)N[C@H](CO)[C@@H](C)O)NC1=O [pamoate, octreotide pamoate hydrate]
  stability: excellent stability; also recorded: very stable

— patent US5876761A, “Sustained release formulations of water soluble peptides” (Novartis AG, priority 1990, dated 1999)
